Measured values from ChEMBL document CHEMBL3507680, “University of Dundee, Gates Library screen for HepG2 cell viability”.

Test: Human HepG2 cell viability assay in 384 well format
Type: toxicity, cell-based
Set-up: dose 125 nL, time 70.5 hour; concentration not given beside the values
Conditions: HepG2 cells, read-out: Inhibition

| Structure (SMILES) | cytotoxicity at 70.5 h [%] |
| --- | --- |
| CC(C)Oc1cccc(C(=O)C2CCCN(C(=O)c3ccccn3)C2)c1 (centres undefined) | -8.75 |
| Cc1ccc(Cl)cc1-n1nnnc1C1(N2CCCC2)CCCC1 | -11.5 |
| COc1ccccc1N1CCN(CC[C@H](O)c2ccccc2)CC1=O | -12 |
| CCN1CC2(CCN(C(=O)C(C)Oc3cccc(Cl)c3)CC2)OC1=O (centres undefined) | -11.6 |
| O=C(CCc1cc(O)no1)N1CCCC(COc2ccccc2F)C1 (centres undefined) | -20.7 |
| COCCN(C)C[C@@H]1CN(C(=O)c2ccc(O)c(C)c2)C[C@@H]1CO | -2.33 |
| CSc1ncccc1C(=O)N1C[C@H]2CC[C@@H]1CN(C(C)=O)C2 | -6.7 |
| CC1=CC(C)(C)N(CN2C(=O)c3ccccc3C2=O)c2ccc(C)cc21 | 7.06 |
| CC1=CC(C)(C)N(CN2C(=O)c3ccccc3C2=O)c2ccccc21 | 0.789 |
| O=C(O)[C@@H]1CN(Cc2c[nH]c(CC3CCCC3)n2)C[C@H]1c1ccccn1 | 17.2 |
| c1cc(-c2cnccn2)cc(-c2ccn(CCN3CCCCC3)n2)c1 | -7.67 |
| Nc1ncc(C(=O)N2CCC3(CCCO3)CC2)c(-c2ccccc2)n1 | -2.3 |
| Cc1cc(C(=O)N2CCN(C(=O)CC(C)C)[C@@H]3CS(=O)(=O)C[C@@H]32)no1 | -11.9 |
| CC(C)c1nc(CN(C)C(=O)C(O)c2ccc(Cl)cc2)cs1 (centres undefined) | -0.849 |
| CN(C)CC(Nc1nc(N)nc2c1CCNCC2)c1ccccc1 (centres undefined) | -18.8 |
| CC1(C)Cc2c(cnn2-c2cccc(F)c2)C(NC2CCSCC2)C1 (centres undefined) | 9.46 |
| CN1CCC(N(C)C[C@H]2CC[C@@H](Cc3ccc4occc4c3)O2)CC1 | 3.05 |
| COc1cccc([C@H]2CN(C(=O)c3noc4c3CCCC4)C[C@@H]2N)c1 | -3.29 |
| CC(c1ccncn1)N(C)Cc1cc2cc3c(cc2[nH]c1=O)OCO3 (centres undefined) | 3.45 |
| CCc1nn(C)c(Cl)c1CN1CCCC2(CC1)CN(C)C(=O)O2 (centres undefined) | -14.9 |
| Cc1cccnc1CC(C)Nc1nc(N)nc2c1CCNC2 (centres undefined) | 2.93 |
| O=C(c1cc(COc2ccc3c(c2)OCO3)[nH]n1)N1CCCCO1 | 20.1 |

| Structure (SMILES) | cytotoxicity at 70.5 h [%] |
| --- | --- |
| CC[C@@]1(O)CCN(Cc2cc(C3CCCCC3)no2)C[C@H]1O | -2.92 |
| COc1ccc(OCc2cc(C(=O)N3CCOCC3)n[nH]2)c(Cl)c1 | -2.87 |
| Cc1cc2[nH]c(=O)oc2cc1S(=O)(=O)N1CCCC(N(C)C)CC1 (centres undefined) | -2.95 |
| COc1cccc(Cl)c1C(C(=O)O)N(C)Cc1nnc(C)o1 (centres undefined) | 11.6 |
| Cc1cc(Cl)ccc1C(=O)N1C[C@H](C2CC2)[C@@H](N)C1 | -1.61 |
| CCc1nc2c(c(NC3CCC3)n1)CCN(C(=O)CO)CC2 | 0.47 |
| CCOCc1nc2c(c(NC(CC)c3cccnc3)n1)CCNCC2 (centres undefined) | -3.13 |
| Cc1cc2c(c(-c3c[nH]c(C)n3)c1)OC(CN)C2 (centres undefined) | 2.12 |
| CN(c1ccc(-c2nc(C3CC3)no2)cn1)C1CCOCC1 | -3.42 |
| CC(=O)c1ccc(C(=O)N2C[C@@H]3CC[C@H](C2)N(CC2CCC2)C3)s1 | -3.03 |
| CN1CCN(Cc2n[nH]c(=O)n2CC2CCCCC2)CC1 | -6.17 |
| CN(Cc1ccccc1)C1(C(=O)NC(CO)CO)Cc2ccccc2C1 | 1.88 |
| Cc1nc(C)n(CCCn2ccnc2-c2cc3n(n2)CCCNC3)n1 | -11 |
| Nc1nc2c(c(=O)[nH]1)CCN(C(=O)c1ccccc1N1CCCC1)C2 | 0.043 |
| Nc1nc2c(c(NCc3nccs3)n1)CCN(CC1CCCC1)CC2 | -17.1 |
| CC(C)n1ccnc1CN1CCOC(CC2CCCCC2)C1 (centres undefined) | 5.36 |
| CC(C)(C)c1ncc2c(n1)CN(C(=O)C(C)(C)n1cccc1)C2 | -6.39 |
| Cc1noc(C)c1CN1C(=O)[C@H]2CC[C@@H]1CN(Cc1nccs1)C2 | 0.0707 |
| CN1CCN(C(=O)N2CCCC(c3nccn3CC3CCC3)C2)CC1 (centres undefined) | -15.8 |
| N#Cc1cccc(N2CCC(CO)(CCCc3ccccc3)CC2)n1 | -4.41 |
| Cn1cccc1C(=O)N1CCC2(CCCN(CC3CCC3)C2=O)C1 (centres undefined) | -2.25 |
| Cc1csc(CN(C)c2cc(C)nc3c(C)c(C)nn23)n1 | -7.34 |

| Structure (SMILES) | cytotoxicity at 70.5 h [%] |
| --- | --- |
| CCc1nc(NC2CCCN(C(=O)C3CC3)C2)c2cnn(C)c2n1 (centres undefined) | -15.4 |
| O=C(O)c1cnc(N2CCC(c3nccn3CC3CC3)CC2)c(Cl)c1 | -8.03 |
| COc1ccc(Cl)cc1CN(C)C(=O)CN1C(=O)CCC1C (centres undefined) | -9.27 |
| O=C(O)c1ccnc(-c2ccnc(NCCc3cscn3)n2)c1 | -2.9 |
| Cc1c(-c2nc3cc(S(=O)(=O)N4CCCC4)ccc3n2C)cnn1C | -22.4 |
| Cc1nn(C)c2ncnc(N3CCCC(OCc4ccccn4)C3)c12 (centres undefined) | 1.57 |
| CC(CO)CN(Cc1ccccc1)C(=O)c1csc(CN(C)C)n1 (centres undefined) | -3.43 |
| NC(=O)c1ccc(N2CCN(Cc3c(Cl)cncc3Cl)CC2)nc1 | 10.8 |
| Cc1cc(C)n(CC(C)NC2CCN(Cc3cccnc3)CC2)n1 (centres undefined) | -7.19 |
| CC1CCCN(c2ccc(C(N)=O)cc2NC(=O)CC2=CCNCC2)C1 (centres undefined) | -17.5 |
| CN(CCC1CCOCC1)C(=O)C1CCC(=O)N(Cc2ccccn2)C1 (centres undefined) | 13.4 |
| COCCN1CCC(c2nc3c([nH]2)CCCNC3=O)CC1 | -8.24 |
| c1ccc(C2CN(C3CC3)CC3(CCN(Cc4cscn4)CC3)C2)cc1 (centres undefined) | -5.25 |
| Nc1cc(N2CCCC(COc3ccc(F)cc3)C2)nc(N)n1 (centres undefined) | -2.71 |
| O=c1c2cccc(C(F)(F)F)c2ncn1CCN1CCNCC1 | -1.89 |
| Cc1nc2c(N3CCC(O)(Cn4ccnc4)CC3)ncnc2o1 | -0.124 |
| COCc1nc(CNC2CCSC2)no1 (centres undefined) | -2.87 |
| Fc1cccnc1Oc1cc(F)c(CN2CCCC2)c(Cl)c1 | 22.4 |
| CN(CC(=O)N1CC(Oc2ccccc2Cl)C1)Cc1ccncc1 | 12.8 |
| COC1CCCN(C2CCN(c3cccc(-c4csc(C)n4)c3)CC2)C1 (centres undefined) | -1.69 |
| Cc1sc2nc(CCN)nc(N3CCC(N4CCCC4)CC3)c2c1C | -4.21 |
| CCCNC(=O)c1ccc(S(=O)(=O)NCC2(O)CCCNC2)cc1 (centres undefined) | -5.48 |

| Structure (SMILES) | cytotoxicity at 70.5 h [%] |
| --- | --- |
| CCc1nnc(CNC(=O)CCCN2CCCCC2)s1 | -0.919 |
| COc1nc2c(cc1C(=O)N1CCCOC(Cn3cccn3)C1)CCC2 (centres undefined) | -2.14 |
| COc1cccc(CN2CCN(Cc3ccc4nonc4c3)CC2=O)c1 | -0.956 |
| N[C@H]1CN(C(=O)c2ccc3[nH]c(CO)nc3c2)C[C@@H]1c1ccccc1 | -19.4 |
| CN(Cc1cccnc1)C[C@H]1CC[C@@H](Cc2ccc3c(cnn3C)c2)O1 | -10.4 |
| CC(=O)NCC(=O)N1Cc2c(-c3cccc(C)c3)nc(N)nc2C1C (centres undefined) | -13.1 |
| CCOc1ccc(CN2CCNC(C(=O)NC3CC3)C2)cc1CO (centres undefined) | -10.9 |
| Cc1c(CN2CCCC(C(=O)c3ccc(C(C)(C)C)cc3)C2)cnn1C (centres undefined) | -4.49 |
| O=C(NCCOc1ccccc1)C1NCCc2[nH]cnc21 (centres undefined) | -7.83 |
| O=C1CN(Cc2cnc3c(-c4ccccc4)cnn3c2)CCCN1 | -6.12 |
| CCN1CCN(S(=O)(=O)N2CCc3ccccc3C2)[C@H]2CS(=O)(=O)C[C@H]21 | -9.8 |
| O=C(c1cnc(COc2ccccc2)nc1O)N1CCOCC1 | -5.87 |
| CN1CCCN(C(=O)c2ccc3c(c2)nc(N2CCOCC2)n3C)CC1 | -8.33 |
| CCn1nc(CC(C)C)cc1C(=O)N1CC[C@@H](O)C1 | -3.86 |
| COCC(=O)N1Cc2cnc(Cc3ccc(OC)cc3)nc2C1 | 1.24 |
| CN(CCN1CCCCCC1)C(=O)c1cc(CN2CCC(O)CC2)on1 | -0.511 |
| O=C(NCc1cc(O)ncn1)C1COc2ccccc2C1 (centres undefined) | -8.68 |
| COc1ncc(C2CC(=O)NCc3nc4ccccn4c32)cn1 (centres undefined) | -13.5 |
| Cc1cnccc1N1CCCN(C(=O)CCCS(N)(=O)=O)CC1 | 3.54 |
| CCN1CCC2(CCC1=O)CN(c1ccnc(SC)n1)CCN2C (centres undefined) | 3.52 |
| COC(=O)NCc1cc2n(n1)CCCN(C(C)=O)C2 | -7.46 |
| O=C(O)c1cc(-c2cccnc2)cc(S(=O)(=O)N2CCCCCC2)c1 | -11.7 |

| Structure (SMILES) | cytotoxicity at 70.5 h [%] |
| --- | --- |
| Cc1cc(N2CCCN(C(=O)Cc3ccc(O)c(Cl)c3)CC2)ccn1 | -4.07 |
| Cc1ccc(-c2cccc(-c3ccn(CCN4CCCC4)n3)c2)nn1 | -6.29 |
| Cc1[nH]ccc1C(=O)N1CCCC(c2nccn2Cc2cscn2)C1 (centres undefined) | 20.2 |
| Cc1ccc2c(c1)c(CNC(=O)C1CC(=O)N(C3CCCC3)C1)nn2C (centres undefined) | 16.8 |
| CCCc1cc(C(=O)N(C)Cc2cccc3ncccc23)n(C)n1 | -14.7 |
| CCn1c(N)nc2cc(C(=O)NCCc3ccccc3C)cnc21 | -5.73 |
| Cc1cc(C[C@@H]2COC[C@@H]2NC(=O)CN2CCCN(C)CC2)on1 | -7.54 |
| CN(Cc1cc[nH]n1)C(=O)c1cccc(CCC(C)(C)O)c1 | -3.42 |
| CCNC(=O)[C@@H]1C[C@H](NC(=O)c2cncnc2C)CN1CCCSC | -1.96 |
| O=C(c1cccc(S(=O)(=O)NCCCc2ccco2)c1)N1CCOCC1 | 3.78 |
| Cc1cc(-c2nnc(SCC(=O)O)n2C(C)c2ccccc2)nn1C (centres undefined) | -0.677 |
| COc1ccc2cc(C3CN(C(=O)C4CCOCC4)CCO3)ccc2c1 (centres undefined) | 1.57 |
| C=Cc1ccc(C(=O)N2CCCC(Nc3ccc(OC)cc3)C2)cc1 (centres undefined) | -7.62 |
| CC[C@@]1(O)CCN(C(=O)c2ccc(-c3cccc(F)c3)cc2)C[C@H]1O | -7.02 |
| Cc1cc(NCc2cc3n(n2)CCCN(C(=O)N(C)C)C3)ncn1 | -12.5 |
| Cc1c(F)cccc1CN1CCn2nc(CNC(=O)N(C)C)cc2C1 | 20 |
| Cc1c[nH]c(CN(C)c2nc(C3CCCC3)nc3c2cnn3C)n1 | -2.19 |
| CN1C(=O)CC(C(=O)O)C12CCN(Cc1ccc(Cl)cc1F)CC2 (centres undefined) | 2.06 |
| Cc1cccnc1NCCNC(=O)[C@H]1CNC[C@@H](C(=O)N2CCCC2)C1 | 0.731 |
| O=C1O[C@@H]2CN(Cc3ccccc3)C[C@@H]2N1CCCN1CCOCC1 | -7.7 |
| CCS(=O)(=O)N1CCC2(CCCN(Cc3cc(OC)ccc3F)C2)C1 (centres undefined) | -6.66 |
